In patent US11319322B2, “Substituted aryl ether compound, preparation method thereof, pharmaceutical composition and use thereof” (Xiamen University, priority 2017, dated 2022):

What was measured:
Type in all cases: cell-based
CCDC6-RET-BaF3 = target: T1, CCDC6-RET-BaF3 (Homo sapiens, UniProt P07949); assay: Growth inhibition of CCDC6-RET-BaF3 cells stably transfected with kinase (MTS); details: 48 h, read-out: CCDC6-RET (IC50/nM)
T1 construct: fused on or other part: Q16204 (Coiled-coil domain-containing protein 6)
How it was run: (§1)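 BaF3 cells stably expressing CCDC6-RET or KIF5B-RET, or parental BaF3, 2×10^4 cells/well, treated 48 h at 37 °C with 8-point 1:3 dilutions from 10 μM (0.1% DMSO). MTS/PES added 1–4 h, OD490 read; inhibition versus DMSO and blank gave IC50.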

KIF5B-RET-BaF3 = target: T2, KIF5B-RET-BaF3 (Homo sapiens, UniProt P07949); assay: Growth inhibition of KIF5B-RET-BaF3 cells stably transfected with kinase (MTS); details: 48 h, read-out: KIF5B-RET (IC50/nM)
T2 construct: fused on or other part: P33176 (Kinesin-1 heavy chain)
How it was run: as §1

wild-type BaF3 = assay: Growth inhibition of wild-type BaF3 cells, broad-spectrum toxicity (MTS); details: Mus musculus, 48 h, read-out: WT Ba/F3 (IC50/nM)
Description: Growth inhibitory activity of compounds on cell lines stably transfected with kinase
The activity of compounds against kinase RET is evaluated by their effect of inhibiting growth of cell lines stably transfected with kinase CCDC6-RET-BaF3, KIF5B-RET-BaF3, and wild-type BaF3 (Proc. Natl. Acad. Sci. USA., 2006, 103, 3153-8.). The growth of the cell lines stably transfected with kinase CCDC6-RET-BaF3, KIF5B-RET-BaF3 depends on their kinase activity. If a compound can inhibit the activity of the kinase RET per se or the activity of the RET signaling pathway, the compound can inhibit the growth of BaF3 cells stably transfected with kinase. […] Therefore, a larger ratio between IC50 of a compound to wild-type BaF3 and IC50 of the compound to the cell lines stably transfected with kinase CCDC6-RET-BaF3, KIF5B-RET-BaF3 indicates better targeting.
The specific test method is given as follows:
1) Medium: DMEM (Dulbecco's modified eagle medium) or RPMI 1640 (containing 10% fetal bovine serum, 100 μg/mL ampicillin, 100 μg/mL streptomycin).
2) Reagents: MTS reaction solution (containing 2 mg/mL of MTS [3-(4,5-dimethylthiazol-2-yl)-5-(3-carboxymethoxyphenyl)-2-(4-sulfophenyl)-2H-tetrazolium, inner Salt]; 100 μg/mL PES (phenazine […])).
3) Compound test: cells stably transfected with kinase (CCDC6-RET-BaF3, KIF5B-RET-BaF3) or wild-type BaF3 cells (2×10^4 cells/well) were incubated into a 96-well culture plate, the volume of cell culture fluid was 90 μL, and then 10 μL of the compound at each gradient concentration was added (the highest concentration was 10 μM, which was diluted stepwise by ⅓, and 8 concentration points were set in total; the system contained 0.1% DMSO (dimethyl sulfoxide)). The cell plate with uniformly mixed compound was cultured in a cell culture incubator (37° C.; 5% CO2) for 48 h, then 20 μL of MTS reaction solution was added, uniformly mixed and incubated in the cell culture incubator (37° C.; 5% CO2) for 1-4 hr, OD values at 490 nm were measured by a microplate reader (VARIOSKAN FLASH, Thermo). Three parallels were set in each group of experiments, with 0.1% (a final concentration) DMSO as a negative control, and a medium without cells or compounds as a blank control. The cell growth inhibition rate was calculated by the following formula: Cell growth inhibition rate %=1−(ODexperimental group−ODblank group)/(ODnegative group−ODblank group)×100%
4) IC50 calculation: The semi-inhibitory concentration of the compound acting on cell growth was calculated using GradPad Prism 5 software according to the measured cell growth inhibition rate.

T1 sequence (P07949 whole entry, change not shown, the tested form may be a part): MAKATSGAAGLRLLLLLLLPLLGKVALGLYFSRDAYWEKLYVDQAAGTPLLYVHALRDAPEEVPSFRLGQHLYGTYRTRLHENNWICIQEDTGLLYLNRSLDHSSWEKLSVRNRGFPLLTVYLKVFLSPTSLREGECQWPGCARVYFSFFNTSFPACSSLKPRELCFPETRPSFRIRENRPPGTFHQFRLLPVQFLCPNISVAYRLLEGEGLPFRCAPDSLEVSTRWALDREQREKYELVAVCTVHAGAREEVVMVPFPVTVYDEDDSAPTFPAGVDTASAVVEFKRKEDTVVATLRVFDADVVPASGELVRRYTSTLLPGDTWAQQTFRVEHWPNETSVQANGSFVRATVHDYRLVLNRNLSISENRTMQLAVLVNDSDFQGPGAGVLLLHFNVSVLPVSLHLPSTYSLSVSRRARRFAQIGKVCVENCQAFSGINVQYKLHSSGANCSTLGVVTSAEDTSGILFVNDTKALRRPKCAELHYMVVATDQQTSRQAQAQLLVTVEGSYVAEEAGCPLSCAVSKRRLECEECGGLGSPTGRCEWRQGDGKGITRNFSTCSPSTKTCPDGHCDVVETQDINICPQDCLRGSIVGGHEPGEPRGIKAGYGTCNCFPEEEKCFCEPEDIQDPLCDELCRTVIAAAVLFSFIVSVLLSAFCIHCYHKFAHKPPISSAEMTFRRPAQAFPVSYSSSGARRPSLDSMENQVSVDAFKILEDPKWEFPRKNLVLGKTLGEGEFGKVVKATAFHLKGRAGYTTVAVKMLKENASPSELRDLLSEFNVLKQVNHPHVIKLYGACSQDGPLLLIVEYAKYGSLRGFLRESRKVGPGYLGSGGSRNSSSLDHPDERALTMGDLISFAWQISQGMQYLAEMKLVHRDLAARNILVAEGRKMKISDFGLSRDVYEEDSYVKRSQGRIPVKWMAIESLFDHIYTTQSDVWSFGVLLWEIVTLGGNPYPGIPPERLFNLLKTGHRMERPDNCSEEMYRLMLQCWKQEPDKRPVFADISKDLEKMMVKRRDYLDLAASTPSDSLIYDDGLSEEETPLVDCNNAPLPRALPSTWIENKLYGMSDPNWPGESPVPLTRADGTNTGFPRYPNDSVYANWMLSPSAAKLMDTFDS
T2 sequence (P07949 whole entry, change not shown, the tested form may be a part): as above

Row | SMILES | GI50 (CCDC6-RET-BaF3) | GI50 (KIF5B-RET-BaF3) | IC50 (wild-type BaF3)
1 | Cc1ccc(Oc2nc(-c3ccsc3)nc3c2ncn3C)cc1NC(=O)c1ccc(CN2CCN(C)CC2)c(C(F)(F)F)c1 [I-j-7] | 1030 nM | 1440 nM | 2410 nM
2 | CN1CCN(Cc2ccc(NC(=O)c3cccc(Oc4nc(-c5ccncc5)nc5[nH]cnc45)c3)cc2C(F)(F)F)CC1 [I-l-1] | 476 nM | 1950 nM | > 10000 nM
3 | CN1CCN(Cc2ccc(NC(=O)c3cccc(Oc4nc(-c5ccncc5)nc5c4ncn5C)c3)cc2C(F)(F)F)CC1 [I-l-3] | 25.2 nM | 5.88 nM | > 10000 nM
4 | Cc1ccc(Oc2nc(-c3ccncc3)nc3[nH]cnc23)cc1C(=O)Nc1ccc(CN2CCN(C)CC2)c(C(F)(F)F)c1 [I-n-1] | 298 nM | 900 nM | > 10000 nM
5 | Cc1ccc(Oc2nc(-c3cccnc3)nc3c2ncn3C)cc1C(=O)Nc1ccc(CN2CCN(C)CC2)c(C(F)(F)F)c1 [I-n-2] | 3210 nM | 3640 nM | 1610 nM
6 | Cc1ccc(Oc2nc(-c3cccnc3)nc3[nH]ncc23)cc1NC(=O)c1ccc(CN2CCN(C)CC2)c(C(F)(F)F)c1 [II-j-5] | 2370 nM | 3890 nM | 7400 nM
7 | Cc1ccc(Oc2nc(-c3ccncc3)nc3[nH]ncc23)cc1NC(=O)c1ccc(CN2CCN(C)CC2)c(C(F)(F)F)c1 [II-j-6] | 7.96 nM | 44.2 nM | 4230 nM
8 | CN1CCN(Cc2ccc(C(=O)Nc3cc(Oc4nc(-c5cccnc5)nc5[nH]ncc45)ccc3Cl)cc2C(F)(F)F)CC1 [II-k-3] | 567 nM | 1350 nM | 1340 nM
9 | Cc1ccc(C(=O)Nc2ccc(CN3CCN(C)CC3)c(C(F)(F)F)c2)cc1Oc1nc(-c2cccnc2)nc2[nH]ncc12 [II-m-20] | 10.6 nM | 74.3 nM | > 10000 nM
10 | Cc1ccc(C(=O)Nc2ccc(CN3CCN(C)CC3)c(C(F)(F)F)c2)cc1Oc1nc(-c2ccncc2)nc2[nH]ncc12 [II-m-21] | 73.4 nM | 240 nM | 4780 nM
11 | Cc1ccc(Oc2nc(-c3ccsc3)nc3cc[nH]c23)cc1NC(=O)c1ccc(CN2CCN(C)CC2)c(C(F)(F)F)c1 [III-j-4] | 1360 nM | 1720 nM | 3410 nM
12 | Cc1ccc(Oc2nc(-c3ccccc3)nc3ccn(C)c23)cc1NC(=O)c1ccc(CN2CCN(C)CC2)c(C(F)(F)F)c1 [III-j-7] | 1270 nM | 1370 nM | 2560 nM
13 | Cc1ccc(Oc2nc(-c3ccsc3)nc3ccn(C)c23)cc1NC(=O)c1ccc(CN2CCN(C)CC2)c(C(F)(F)F)c1 [III-j-8] | 1140 nM | 1320 nM | 1880 nM
14 | Cc1ccc(Oc2nc(-c3ccoc3)nc3cc[nH]c23)cc1NC(=O)c1ccc(CN2CCN(C)CC2)c(C(F)(F)F)c1 [III-j-9] | 97.6 nM | 464 nM | 4260 nM
15 | Cc1ccc(Oc2nc(-c3ccoc3)nc3ccn(C)c23)cc1NC(=O)c1ccc(CN2CCN(C)CC2)c(C(F)(F)F)c1 [III-j-10] | 234 nM | 428 nM | 1460 nM
16 | Cc1ccc(Oc2nc(-c3ccc(Cl)cc3)nc3cc[nH]c23)cc1NC(=O)c1ccc(CN2CCN(C)CC2)c(C(F)(F)F)c1 [III-j-11] | 1530 nM | 1570 nM | 1360 nM
17 | Cc1ccc(Oc2nc(-c3ccc(N)cc3)nc3cc[nH]c23)cc1NC(=O)c1ccc(CN2CCN(C)CC2)c(C(F)(F)F)c1 [III-j-15] | 745 nM | 620 nM | 1200 nM
18 | Cc1ccc(Oc2nc(-c3ccc(N)cc3)nc3ccn(C)c23)cc1NC(=O)c1ccc(CN2CCN(C)CC2)c(C(F)(F)F)c1 [III-j-16] | 2040 nM | 1470 nM | 2280 nM
19 | Cc1ccc(Oc2ncnc3ccn(C)c23)cc1NC(=O)c1ccc(CN2CCN(C)CC2)c(C(F)(F)F)c1 [III-j-18] | 477 nM | 1350 nM | > 10000 nM
20 | CN1CCN(Cc2ccc(C(=O)Nc3cc(Oc4nc(-c5cccnc5)nc5cc[nH]c45)ccc3Cl)cc2C(F)(F)F)CC1 [III-k-1] | 1860 nM | 1320 nM | 4160 nM
21 | CN1CCN(Cc2ccc(C(=O)Nc3cc(Oc4nc(-c5ccncc5)nc5cc[nH]c45)ccc3Cl)cc2C(F)(F)F)CC1 [III-k-2] | 0.79 nM | 17.2 nM | 1340 nM
22 | CN1CCN(Cc2ccc(C(=O)Nc3cc(Oc4nc(-c5cccnc5)nc5ccn(C)c45)ccc3Cl)cc2C(F)(F)F)CC1 [III-k-3] | 1250 nM | 1190 nM | 1170 nM
23 | CN1CCN(Cc2ccc(C(=O)Nc3cc(Oc4nc(-c5ccncc5)nc5ccn(C)c45)ccc3Cl)cc2C(F)(F)F)CC1 [III-k-4] | 11.2 nM | 70.7 nM | 1620 nM

Second part, led by results:

Row | GI50 (CCDC6-RET-BaF3) | GI50 (KIF5B-RET-BaF3) | SMILES | IC50 (wild-type BaF3)
24 | 1420 nM | 1430 nM | Cc1ccc(Oc2nc(-c3ccc(Cl)cc3)nc3c2ncn3C)cc1NC(=O)c1ccc(CN2CCN(C)CC2)c(C(F)(F)F)c1 [I-j-3] | 1770 nM
25 | 1010 nM | 1610 nM | Cc1ccc(Oc2nc(-c3ccc(O)cc3)nc3c2ncn3C)cc1NC(=O)c1ccc(CN2CCN(C)CC2)c(C(F)(F)F)c1 [I-j-4] | 1790 nM
26 | 1880 nM | 2370 nM | Cc1ccc(Oc2nc(-c3ccc(N)cc3)nc3c2ncn3C)cc1NC(=O)c1ccc(CN2CCN(C)CC2)c(C(F)(F)F)c1 [I-j-5] | 4200 nM
27 | 221 nM | 1180 nM | Cc1ccc(Oc2nc(-c3ccoc3)nc3c2ncn3C)cc1NC(=O)c1ccc(CN2CCN(C)CC2)c(C(F)(F)F)c1 [I-j-6] | 4220 nM
28 | 504 nM | 810 nM | Cc1ccc(C(=O)Nc2ccc(CN3CCN(C)CC3)c(C(F)(F)F)c2)cc1Oc1nc(-c2ccncc2)nc2[nH]cnc12 [I-m-1] | > 10000 nM
29 | 1430 nM | 1770 nM | Cc1ccc(C(=O)Nc2cccc(C(F)(F)F)c2)cc1Oc1nc(-c2ccncc2)nc2c1cnn2C [II-e-2] | > 10000 nM
30 | 343 nM | 820 nM | CN1CCN(Cc2ccc(C(=O)Nc3cccc(Oc4nc(-c5cccnc5)nc5[nH]ncc45)c3)cc2C(F)(F)F)CC1 [II-h-3] | 4090 nM
31 | 78.6 nM | 300 nM | CN1CCN(Cc2ccc(C(=O)Nc3cccc(Oc4nc(-c5ccncc5)nc5[nH]ncc45)c3)cc2C(F)(F)F)CC1 [II-h-4] | 3930 nM
32 | 37.7 nM | 104 nM | CN1CCN(Cc2ccc(C(=O)Nc3cc(Oc4nc(-c5ccncc5)nc5[nH]ncc45)ccc3Cl)cc2C(F)(F)F)CC1 [II-k-4] | > 10000 nM
33 | 2480 nM | 2350 nM | Cc1ccc(Oc2nc(-c3ccccc3)nc3cc[nH]c23)cc1NC(=O)c1ccc(CN2CCN(C)CC2)c(C(F)(F)F)c1 [III-j-3] | 3780 nM
34 | 2660 nM | 2970 nM | Cc1ccc(Oc2nc(-c3ccc(Cl)cc3)nc3ccn(C)c23)cc1NC(=O)c1ccc(CN2CCN(C)CC2)c(C(F)(F)F)c1 [III-j-12] | 2150 nM
35 | 1720 nM | 2400 nM | Cc1ccc(Oc2nc(-c3ccc(O)cc3)nc3cc[nH]c23)cc1NC(=O)c1ccc(CN2CCN(C)CC2)c(C(F)(F)F)c1 [III-j-13] | 4150 nM
36 | 876 nM | 1380 nM | Cc1ccc(Oc2nc(-c3ccc(O)cc3)nc3ccn(C)c23)cc1NC(=O)c1ccc(CN2CCN(C)CC2)c(C(F)(F)F)c1 [III-j-14] | 1340 nM
37 | 1490 nM | 1920 nM | CN1CCN(Cc2ccc(C(=O)Nc3cc(Oc4nc(-c5ccoc5)nc5cc[nH]c45)ccc3Cl)cc2C(F)(F)F)CC1 [III-k-5] | 4360 nM
38 | 990 nM | 1010 nM | CN1CCN(Cc2ccc(C(=O)Nc3cc(Oc4nc(-c5ccoc5)nc5ccn(C)c45)ccc3Cl)cc2C(F)(F)F)CC1 [III-k-6] | 2470 nM
